# Test results as given in patent US20050070554A1, “Substituted heterocyclic compounds and methods of use” (Amgen Inc., priority 2003, published 2005).
# Molecular target: T1, LCK (Homo sapiens, UniProt P06239)
# T1 construct: LCK KD GST (225-509); GST
# Test: LCK-Homogeneous Time Resolved Fluorescent (HTRF) Kinase Assay
# Type: biochemical
# Conditions: read-out: activity in the LCK-HTRF Kinase Assay
# Outline: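 LCK phosphorylates biotinylated Gastrin peptide in the presence of ATP for 90 min in 50 mM HEPES pH 7.5, 50 mM NaCl, 20 mM MgCl, 5 mM MnCl, 2 mM DTT, 0.05% BSA. Reaction stopped with EDTA-containing detection reagent, then equilibrated 30 min before HTRF read.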
# T1 sequence (P06239 225-509): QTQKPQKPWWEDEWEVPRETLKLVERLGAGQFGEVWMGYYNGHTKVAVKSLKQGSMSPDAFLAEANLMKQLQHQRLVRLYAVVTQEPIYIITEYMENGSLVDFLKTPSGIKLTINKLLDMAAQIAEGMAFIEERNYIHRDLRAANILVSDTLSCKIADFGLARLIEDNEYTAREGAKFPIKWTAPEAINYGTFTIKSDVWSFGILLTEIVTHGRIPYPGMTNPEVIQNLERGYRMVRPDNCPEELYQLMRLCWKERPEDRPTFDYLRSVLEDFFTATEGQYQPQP
row,Compound,IC50 [nM]
1,"CN1CCN(c2ccc(Nc3ncc4c(=O)n(-c5ccc(F)cc5)c5nc6ccccc6n5c4n3)cc2)CC1 [No. 84, 6-(4-fluorophenyl)-2-((4-(4-methyl-1-piperazinyl)-phenyl)amino)pyrimido[5′,4′:5,6]pyrimido[1,2-a]-benzimidazol-5(6H)-one]",< 1000
2,"Cc1cccc(C)c1-n1c(=O)c2cnc(Nc3ccc(N4CCN(C)CC4)cc3)nc2n2ccnc12 [No. 87, 6-(2,6-dimethylphenyl)-2-((4-(4-methyl-1-piperazinyl)phenyl)amino)imidazo[1,2-a]-pyrimido[5,4-e]pyrimidin-5(6H)-one]",< 1000
3,"CN1CCN(c2ccc(Nc3ncc4c(=O)n(-c5c(F)cccc5F)c5nc6ccccc6n5c4n3)cc2)CC1 [No. 88, 6-(2,6-difluorophenyl)-2-((4-(4-methyl-1-piperazinyl)-phenyl)amino)pyrimido[5′,4′:5,6]pyrimido[1,2-a]-benzimidazol-5(6H)-one]",< 1000
4,"CN1CCN(c2ccc(Nc3ncc4c(=O)n(-c5c(F)c(F)c(F)c(F)c5F)c5nc6ccccc6n5c4n3)cc2)CC1 [No. 89, 2-((4-(4-methyl-1-piperazinyl)phenyl)amino)-6-(pentafluorophenyl)pyrimido[5′,4′:5,6]pyrimido[1,2-a]benzimidazol-5(6H)-one]",< 1000
